Publication PMC12852734, “Design of precision therapeutics for a CKD risk allele by targeting Shroom3-Rock interaction” (Nature Communications, 2025)

Experiments:
ROCK1 [1] = molecular target: T1, ROCK1 (Homo sapiens, UniProt Q13464); experiment: anti-V5 co-immunoprecipitation of SHROOM3-ROCK1 from treated WT-Sh3 HEK-293T cells; type: cell-based; parameters: with SHROOM3
Target sequence in this assay (Q13464 2-1354): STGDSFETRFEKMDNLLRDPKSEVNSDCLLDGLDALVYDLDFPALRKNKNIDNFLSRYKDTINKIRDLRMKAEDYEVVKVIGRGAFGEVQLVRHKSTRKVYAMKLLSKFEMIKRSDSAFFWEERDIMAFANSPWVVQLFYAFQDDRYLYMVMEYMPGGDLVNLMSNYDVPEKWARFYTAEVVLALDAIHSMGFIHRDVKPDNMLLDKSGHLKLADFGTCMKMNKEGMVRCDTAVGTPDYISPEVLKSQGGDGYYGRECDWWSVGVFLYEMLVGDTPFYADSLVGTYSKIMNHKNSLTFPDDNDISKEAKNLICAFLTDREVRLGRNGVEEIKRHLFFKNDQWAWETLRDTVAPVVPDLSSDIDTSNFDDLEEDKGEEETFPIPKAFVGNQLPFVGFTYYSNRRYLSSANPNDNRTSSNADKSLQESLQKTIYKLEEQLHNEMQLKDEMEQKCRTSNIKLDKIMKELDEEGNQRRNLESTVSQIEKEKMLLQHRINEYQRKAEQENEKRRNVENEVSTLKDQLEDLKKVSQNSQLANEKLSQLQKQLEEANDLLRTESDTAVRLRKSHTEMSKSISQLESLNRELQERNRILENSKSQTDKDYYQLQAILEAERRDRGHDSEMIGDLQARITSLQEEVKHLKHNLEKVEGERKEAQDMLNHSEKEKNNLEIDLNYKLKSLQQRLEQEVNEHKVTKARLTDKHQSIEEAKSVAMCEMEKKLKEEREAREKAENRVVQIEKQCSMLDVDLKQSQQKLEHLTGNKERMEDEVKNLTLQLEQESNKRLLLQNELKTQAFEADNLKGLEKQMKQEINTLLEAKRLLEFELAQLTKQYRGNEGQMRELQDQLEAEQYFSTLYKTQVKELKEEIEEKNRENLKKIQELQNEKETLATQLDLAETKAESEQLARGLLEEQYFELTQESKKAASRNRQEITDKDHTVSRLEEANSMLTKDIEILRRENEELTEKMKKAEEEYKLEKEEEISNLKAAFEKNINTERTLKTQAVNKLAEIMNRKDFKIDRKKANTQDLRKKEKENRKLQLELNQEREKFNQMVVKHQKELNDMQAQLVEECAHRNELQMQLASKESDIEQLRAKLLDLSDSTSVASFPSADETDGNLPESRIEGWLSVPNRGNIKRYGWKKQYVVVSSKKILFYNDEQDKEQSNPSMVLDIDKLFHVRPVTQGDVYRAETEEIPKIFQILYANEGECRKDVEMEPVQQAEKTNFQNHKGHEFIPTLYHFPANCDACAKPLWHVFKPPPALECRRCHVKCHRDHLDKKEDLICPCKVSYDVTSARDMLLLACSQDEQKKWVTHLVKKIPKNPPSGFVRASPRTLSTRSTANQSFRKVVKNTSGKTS
Target sequence in this assay (Q8TF72 whole entry partner): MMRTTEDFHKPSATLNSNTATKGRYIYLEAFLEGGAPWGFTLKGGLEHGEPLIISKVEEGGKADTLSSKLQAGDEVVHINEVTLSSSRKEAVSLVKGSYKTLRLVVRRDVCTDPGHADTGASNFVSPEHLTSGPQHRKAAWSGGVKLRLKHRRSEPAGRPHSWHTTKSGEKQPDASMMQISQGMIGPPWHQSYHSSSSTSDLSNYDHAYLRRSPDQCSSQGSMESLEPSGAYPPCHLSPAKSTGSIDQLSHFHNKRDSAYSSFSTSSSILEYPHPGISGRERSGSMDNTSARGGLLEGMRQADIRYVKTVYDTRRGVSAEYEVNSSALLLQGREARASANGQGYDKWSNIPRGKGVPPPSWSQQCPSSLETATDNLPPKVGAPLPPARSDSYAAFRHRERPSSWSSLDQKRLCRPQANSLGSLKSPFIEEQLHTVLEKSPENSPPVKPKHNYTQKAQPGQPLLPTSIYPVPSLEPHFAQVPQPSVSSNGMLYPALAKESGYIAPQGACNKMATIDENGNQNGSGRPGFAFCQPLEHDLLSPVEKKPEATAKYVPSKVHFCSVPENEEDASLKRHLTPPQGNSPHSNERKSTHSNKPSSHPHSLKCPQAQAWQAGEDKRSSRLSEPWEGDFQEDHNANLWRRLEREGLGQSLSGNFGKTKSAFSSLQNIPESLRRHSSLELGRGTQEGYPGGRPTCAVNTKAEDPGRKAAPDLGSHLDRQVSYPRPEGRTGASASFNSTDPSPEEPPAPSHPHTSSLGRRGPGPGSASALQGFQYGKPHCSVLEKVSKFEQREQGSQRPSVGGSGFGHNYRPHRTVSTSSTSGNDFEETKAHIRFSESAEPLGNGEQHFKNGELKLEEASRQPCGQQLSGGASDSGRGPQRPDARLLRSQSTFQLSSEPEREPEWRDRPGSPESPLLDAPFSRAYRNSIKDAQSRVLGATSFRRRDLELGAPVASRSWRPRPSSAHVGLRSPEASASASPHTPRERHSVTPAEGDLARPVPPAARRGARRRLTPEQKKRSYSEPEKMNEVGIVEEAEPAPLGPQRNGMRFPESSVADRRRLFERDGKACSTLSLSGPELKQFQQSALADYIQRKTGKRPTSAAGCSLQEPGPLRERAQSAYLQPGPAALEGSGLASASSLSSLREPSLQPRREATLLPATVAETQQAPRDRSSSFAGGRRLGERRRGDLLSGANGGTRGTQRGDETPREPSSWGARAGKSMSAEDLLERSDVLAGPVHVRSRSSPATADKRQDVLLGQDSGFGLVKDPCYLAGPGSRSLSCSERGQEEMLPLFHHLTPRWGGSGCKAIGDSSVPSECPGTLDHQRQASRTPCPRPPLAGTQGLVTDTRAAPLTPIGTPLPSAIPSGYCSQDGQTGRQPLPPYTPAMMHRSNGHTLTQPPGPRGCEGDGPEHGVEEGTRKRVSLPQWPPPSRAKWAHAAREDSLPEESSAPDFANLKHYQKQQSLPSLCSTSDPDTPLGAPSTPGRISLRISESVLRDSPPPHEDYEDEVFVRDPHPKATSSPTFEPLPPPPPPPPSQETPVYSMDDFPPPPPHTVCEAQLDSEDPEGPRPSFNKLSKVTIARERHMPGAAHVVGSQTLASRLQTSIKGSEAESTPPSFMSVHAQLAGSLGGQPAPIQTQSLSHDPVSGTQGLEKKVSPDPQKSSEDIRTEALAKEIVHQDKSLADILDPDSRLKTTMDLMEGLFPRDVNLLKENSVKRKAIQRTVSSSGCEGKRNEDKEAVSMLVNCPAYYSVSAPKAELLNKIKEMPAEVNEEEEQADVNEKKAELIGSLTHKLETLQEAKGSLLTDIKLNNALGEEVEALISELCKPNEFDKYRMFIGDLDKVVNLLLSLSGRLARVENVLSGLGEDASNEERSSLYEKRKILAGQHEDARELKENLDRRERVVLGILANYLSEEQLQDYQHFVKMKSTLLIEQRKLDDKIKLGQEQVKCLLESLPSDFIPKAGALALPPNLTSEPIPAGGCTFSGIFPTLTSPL

ROCK1 [2] = molecular target: T1, ROCK1
Target sequence in this assay (Q13464 2-1354): as the sequence (Q13464 2-1354) above

Structure (SMILES) | anti-V5 co-immunoprecipitation of SHROOM3-ROCK1 from treated WT-Sh3 HEK-293T cel (ROCK1 [1]) | kinase hot spot assay in the absence of SHROOM3 (Fig. S7j) (ROCK1 [2])
F[B-](F)(F)c1ccc(C2NC(=S)NC3=C2CCc2ccccc23)cc1 (centres unmarked) [D4G, potassium trifluoro (4-(2-thioxo-1,2,3,4,5,6-hexahydrobenzo [h]quinazolin-4-yl)phenyl) borate] | the interaction of SHROOM3 with ROCK1 was diminished with D4G-treatment vs DMSO-treatment in WT-Sh3 overexpressing HEK-293T | –
O=c1[nH]ccc2c(S(=O)(=O)N3CCCNCC3)cccc12 [HF, Hydroxy Fasudil] | – | HF inhibited Rock1, Rock2 (as expected), but showed significant off-target kinase inhibition (except Fyn)
